One experiment concerns the target T1, IRAK4 kinase (Homo sapiens, UniProt Q9NWZ3).
T1 sequence (Q9NWZ3 1-460): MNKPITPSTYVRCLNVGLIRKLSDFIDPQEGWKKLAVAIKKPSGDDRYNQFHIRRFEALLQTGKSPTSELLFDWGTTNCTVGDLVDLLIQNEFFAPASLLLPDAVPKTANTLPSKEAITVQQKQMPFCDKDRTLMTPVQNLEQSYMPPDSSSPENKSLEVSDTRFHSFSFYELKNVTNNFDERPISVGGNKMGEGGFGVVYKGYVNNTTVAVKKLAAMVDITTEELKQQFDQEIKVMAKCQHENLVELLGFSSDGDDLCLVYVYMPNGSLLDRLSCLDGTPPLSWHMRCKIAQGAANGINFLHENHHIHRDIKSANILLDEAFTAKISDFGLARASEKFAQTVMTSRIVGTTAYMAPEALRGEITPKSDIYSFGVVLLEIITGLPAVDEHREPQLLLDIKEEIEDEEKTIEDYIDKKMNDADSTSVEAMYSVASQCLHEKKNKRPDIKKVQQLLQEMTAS
As to the kind of experiment: IRAK4 kinase activity test (KinEASE-STK S1 HTRF kit). The settings on record: 2.5 nM kinase, 1 μM biotinylated polypeptide substrate, 7 μM ATP, 37° C. 120 min. It is filed as biochemical. The essentials: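 Compound in DMSO, serially diluted to 10000–0.038 nM final, incubated with 2.5 nM kinase, 1 μM biotinylated peptide substrate and 7 μM ATP at 37° C for 120 min. Eu-anti-phospho-Ser/Thr antibody plus streptavidin-XL665 stopped the reaction (1 h RT). HTRF 665/620 nm ratio gave % inhibition versus control; IC50 from nonlinear log-concentration fit.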
On the technique in general: In TR-FRET formats the signal depends on donor and acceptor labels being close together.

Experiment [1] has as its target T2, IRAK4 protein in THP-1 cells (Homo sapiens, UniProt Q9NWZ3).
T2 construct: endogenous in cells; host or cells: THP-1
T2 sequence (Q9NWZ3 1-460): T1 sequence (Q9NWZ3 1-460)
As to the kind of experiment: Degradation of IRAK4 in THP-1 cells (Western blot). The settings on record: 24 hours, compound 1-3000 nM. It counts as cell-based. The procedure, abridged: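 THP-1 cells (5×10^5/well) treated 24 h with compound at 1–3000 nM final. IRAK4 in lysates quantified by Western blot, normalized to internal reference and compared with control to give degradation rate; DC50 and Dmax from nonlinear fit of log concentration.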
A general note: Immunoblotting shows a protein as a band on a membrane.

What is called IC50 is the concentration that gives 50% inhibition. High values mean a need for much substance, low ones inhibition by little substance. For orientation: DC50 means the midpoint of the concentration-degradation curve. One may read the Dmax as the greatest extent of degradation seen. A higher Dmax goes with a fuller loss of target.

Compound `COc1cc2nn(C3CCN(CC4CCC5(CC4)CCN(C(=O)c4ccc(F)c(N6CCC(=O)NC6=O)c4)CC5)CC3)cc2cc1NC(=O)c1cccc(C(F)(F)F)n1` [Example 44, N-(2-(1-((3-(3-(2,4-dioxotetrahydro-pyrimidin-1 (2H)-yl)-4-fluoro-benzoyl)-3-azaspiro[5.5]undec-9-yl)methyl)piperidin-4-yl)-6-methoxy-2H-indazol-5-yl)-6-(trifluoromethyl) pyridinecarbox-amide] registered an IC50 against IRAK4 kinase of 52.4 nM. In experiment [1], this compound came in with a DC50 of 2.3 nM and a Dmax of 98.5%.
On to `CC(C)(O)c1cc2nn(C3CCN(CC4CCC5(CC4)CCN(C(=O)c4ccc(F)c(N6CCC(=O)NC6=O)c4)CC5)CC3)cc2cc1NC(=O)c1cccc(C(F)(F)F)n1` [Example 45, N-(2-(1-((3-(3-(2,4-dioxotetrahydro-pyrimidin-1 (2H)-yl)-4-fluoro-benzoyl)-3-azaspiro[5.5]undec-9-yl)methyl)piperidin-4-yl)-6-(2-hydroxyprop-2-yl)-2H-indazol-5-yl)-6-(trifluoro-methyl) pyridinecarbox-amide], for which the IC50 at IRAK4 kinase was determined as 23.5 nM. Further, in experiment [1], it took 1.9 nM to reach half-maximal degradation (DC50) and the Dmax amounted to 98.2%.
For `COc1cc2nn(C3CCN(CCC4CCC5(CC4)CCN(C(=O)c4ccc(F)c(N6CCC(=O)NC6=O)c4)CC5)CC3)cc2cc1NC(=O)c1cccc(C(F)(F)F)n1` [Example 46, N-(2-(1-(2-(3-(3-(2,4-dioxotetrahydro-pyrimidin-1 (2H)-yl)-4-fluoro-benzoyl)-3-azaspiro[5.5]undec-9-yl)ethyl)piperidin-4-yl)-6-methoxy-2H-indazol-5-yl)-6-(tri-fluoromethyl) pyridinecarbox-amide] the same measures were 43.1 nM, 4 nM and 97.8%.
Consider `COc1cc2nn(C3CCN(CCC4CCC5(CC4)CCN(C(=O)c4cccc(N6CCC(=O)NC6=O)c4)CC5)CC3)cc2cc1NC(=O)c1cccc(C(F)(F)F)n1` [Example 47, N-(2-(1-(2-(3-(3-(2,4-dioxotetrahydro-pyrimidin-1 (2H)-yl)benzoyl)-3-azaspiro[5.5]undec-9-yl)ethyl)piperidin-4-yl)-6-methoxy-2H-in-dazol-5-yl)-6-(tri-fluoromethyl) pyridinecarbox-amide], for which the IC50 at IRAK4 kinase was found to be 34.2 nM. In experiment [1], this compound had a DC50 of 5.4 nM and a Dmax of 98.3%.
For `COc1cc2nn(C3CCN(CCC4CCC5(CC4)CCN(C(=O)c4ccc(Cl)c(N6CCC(=O)NC6=O)c4)CC5)CC3)cc2cc1NC(=O)c1cccc(C(F)(F)F)n1` [Example 48, N-(2-(1-(2-(3-(4-chloro-3-(2,4-dioxotetrahydro-pyrimidin-1 (2H)-yl)benzoyl)-3-azaspiro[5.5]undec-9-yl)ethyl)piperidin-4-yl)-6-methoxy-2H-in-dazol-5-yl)-6-(tri-fluoromethyl) pyridinecarbox-amide] the same measures were 61.8 nM, 6 nM and 98%.
On to `COc1cc2nn([C@H]3CC[C@H](CN4CCC5(CC4)CCN(C(=O)c4ccc(Cl)c(N6CCC(=O)NC6=O)c4)CC5)CC3)cc2cc1NC(=O)c1cccc(C(F)(F)F)n1` [Example 50, N-(2-((1r,4r)-4-((9-(4-chloro-3-(2,4-dioxotetrahydropyrim-idin-1 (2H)-yl)benzoyl)-3,9-diazaspiro[5.5]undec-3-yl)methyl)cyclohexyl)-6-methoxy-2H-inda-zol-5-yl)-6-(tri-fluoromethyl) pyridinecarbox-amide], for which, at IRAK4 kinase, the IC50 was 7.2 nM. In experiment [1], this compound showed a DC50 of 5.6 nM and a Dmax of 97%.
The compound `COc1cc2nn([C@H]3CC[C@H](CN(C)CC4CCN(C(=O)c5ccc(Cl)c(N6CCC(=O)NC6=O)c5)CC4)CC3)cc2cc1NC(=O)c1cccc(C(F)(F)F)n1` [Example 51, N-(2-((1r,4r)-4-((((1-(4-chloro-3-(2,4-dioxotetrahydro-pyrimidin-1 (2H)-yl)benzoyl)piperdin-4-yl)methyl) (methyl)amino)methyl)cyclohexyl)-6-methoxy-2H-inda-zol-5-yl)-6-(tri-fluoromethyl) pyridinecarbox-amide] showed an IC50 against IRAK4 kinase of 11.3 nM. In experiment [1], this compound displayed a DC50 of 27.5 nM and a Dmax of 95.4%.
Regarding `COc1cc2nn([C@H]3CC[C@H](N4CCC5(CCN(C(=O)c6ccc(Cl)c(N7CCC(=O)NC7=O)c6)CC5)CC4)CC3)cc2cc1NC(=O)c1cccc(C(F)(F)F)n1` [Example 58, N-(2-((1r,4r)-4-(9-(4-chloro-3-(2,4-dioxotetrahydro-pyrimidin-1 (2H)-yl)benzoyl)-3,9-diazaspiro[5.5]undec-3-yl)cyclohexyl)-6-methoxy-2H-inda-zol-5-yl)-6-(triflu-oromethyl) pyridinecarbox-amide], the half-inhibitory concentration (IC50) on IRAK4 kinase worked out at 4.3 nM. Moreover, in experiment [1], the DC50 is 7.6 nM and the Dmax is 92.1%.
For `CCN(C1CCC2(CC1)CCN(C(=O)c1ccc(Cl)c(N3CCC(=O)NC3=O)c1)CC2)[C@H]1CC[C@H](n2cc3cc(NC(=O)c4cccc(C(F)(F)F)n4)c(OC)cc3n2)CC1` [Example 60] the same measures were 6.43 nM, 5.1 nM and 93.2%.
`CN(CC1CCN(C(=O)c2ccc(Cl)c(N3CCC(=O)NC3=O)c2)CC1)C[C@H]1CC[C@H](n2cc3cc(NC(=O)c4cccc(C(F)(F)F)n4)c(C(C)(C)O)cc3n2)CC1` [Example 62]: on IRAK4 kinase, half-maximal inhibition (IC50) required 6.9 nM. In addition, in experiment [1], the half-maximal degradation concentration (DC50) amounted to 5.6 nM and the Dmax was determined as 92.3%.
For `COc1cc2nn([C@H]3CC[C@H](COCCC4CCN(C(=O)c5ccc(Cl)c(N6CCC(=O)NC6=O)c5)CC4)CC3)cc2cc1NC(=O)c1cccc(C(F)(F)F)n1` [Example 64, N-(2-((1r,4r)-4-((2-(1-(4-chloro-3-(2,4-dioxotetrahydro-pyrimidin-1 (2H)-yl)benzoyl)piperidin-4-yl)ethoxy)methyl)cyclohexyl)-6-methoxy-2H-indazol-5-yl)-6-(trifluoro-methyl) pyridinecarbox-amide] the same measures were 48 nM, 13.9 nM and 95.6%.
Consider `COc1cc2nn([C@H]3CC[C@H](CN(C)C4CCN(C5CCN(C(=O)c6ccc(Cl)c(N7CCC(=O)NC7=O)c6)CC5)CC4)CC3)cc2cc1NC(=O)c1cccc(C(F)(F)F)n1` [Example 65, N-(2-((1r,4r)-4-(((1′-(4-chloro-3-(2,4-dioxotetrahydro-pyrimidin-1 (2H)-yl)benzoyl)-[1,4′-bi-piperidin]-4-yl) (methyl)amino)methyl)cyclohexyl)-6-methoxy-2H-indazol-5-yl)-6-(trifluoro-methyl) pyridinecarbox-amide], for which half-maximal inhibition against IRAK4 kinase (IC50) required 1.6 nM. In experiment [1], this compound showed a DC50 of 13.4 nM and a Dmax of 98.3%.
For `O=C1CCN(c2cc(C(=O)N3CCC4(CCC(CN5CCC(n6cc7cc(NC(=O)c8cccc(C(F)(F)F)n8)c(OC(F)F)cc7n6)CC5)CC4)CC3)ccc2Cl)C(=O)N1` [Example 66] the same measures were 21.4 nM, 16.1 nM and 95.3%.
The compound `COc1cc2nn([C@H]3CC[C@H](CN(C)CCCCC4CCN(C(=O)c5ccc(Cl)c(N6CCC(=O)NC6=O)c5)CC4)CC3)cc2cc1NC(=O)c1cccc(C(F)(F)F)n1` [Example 67, N-(2-((1r,4r)-4-(((4-(1-(4-chloro-3-(2,4-dioxotetrahydro-pyrimidin-1 (2H)-yl)benzoyl)piperidin-4-yl)butyl) (methyl)amino)methyl)cyclohexyl)-6-methoxy-2H-indazol-5-yl)-6-(trifluoro-methyl) pyridinecarbox-amide] yielded an IC50 on IRAK4 kinase of 5.13 nM. In experiment [1], this compound gave a DC50 of 11.5 nM and a Dmax of 99.2%.
For `CC(C)(C)C(=O)OCN1C(=O)CCN(c2cc(C(=O)N3CCC4(CCC(CCN5CCC(n6cc7cc(NC(=O)c8cccc(C(F)(F)F)n8)c(C(C)(C)O)cc7n6)CC5)CC4)CC3)ccc2Cl)C1=O` [Example 71, methyl (3-(2-chloro-5-(9-(2-(4-(6-(2-hydroxyprop-2-yl)-5-(6-(trifluoromethyl)pyridinecarboxamido)-2H-indazol-2-yl)piperidin-1-yl)ethyl)-3-azaspiro[5.5]undecyl-3-carbonyl)phenyl)-2,6-dioxotetrahydropyrimidin-1 (2H)-yl) pivalate] the same measures were 114 nM, 3.7 nM and 97%.

The record behind these values is patent US20230234936A1, “COMPOUND FOR TARGETING AND DEGRADING PROTEIN, AND PREPARATION METHOD THEREFOR AND USE THEREOF” (SHANGHAI LEADINGTAC PHARMACEUTICAL CO., LTD., priority 2020, published 2023).
